Experimental findings from PubChem BioAssay (NCI) are described below.

SMILES strings stand for the structures.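 A five-concentration, 48-hour dose response in 96-well plates underlies each endpoint, interpolated linearly between surrounding concentrations. Definition used: TGI = concentration required for complete inhibition of growth.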

Common to all, as to assay: inhibition of tumour cell growth, NCI panel, 48 h
In assay [1] the test system is A549 NSCLC.
In assay [2] the test system is CAKI-1 renal.
Assay [3] relates to HCC-2998 colon.
Assay [4] has as its system HT29 colon.
For assay [5], the system named is K-562 leukemia.
Assay [6] deals with KM12 colon.
Assay [7] has as its system M14 melanoma.
For assay [8], the system named is NCI-H226 lung.
For assay [9], the system named is OVCAR-3 ovarian.
In assay [10] the test system is OVCAR-5 ovarian.
Assay [11] deals with OVCAR-8 ovarian.
Assay [12] concerns SF-539 CNS.
In assay [13] the test system is SK-MEL-28 melanoma.
Assay [14] deals with SN12C renal.
In assay [15] the test system is U251 CNS.
Assay [16] has as its system UO-31 renal.
Assay [17] has as its system SNB-75 CNS.

Take `C/C(CC(=O)Nc1ccc(Cl)c(Cl)c1)=N/NC(=O)C[n+]1ccccc1`: the TGI in [1], in [2], in [3], in assay [4], in assay [5] and in assay [6] was over 100 µM in each case. Besides, the TGI in assay [7], in [8], in [9], in assay [10], in assay [11] and in assay [12] was over 100 µM in each case. In addition, the TGI in assay [13], in [14], in assay [15] and in assay [16] was over 100 µM throughout.

Turning to `CN(C)c1ccc(-c2cc(=O)c3cc4c(cc3[nH]2)OCO4)cc1`, the TGI in [1], in assay [3], in [4], in [5], in assay [7] and in [8] was over 100 µM throughout. Besides, the TGI in assay [9], in assay [11], in [12], in [13], in [14] and in assay [17] was over 100 µM each time. Further, the TGI in assay [15] and in assay [16] was over 100 µM throughout.

On to `C/C(=N\NS(=O)(=O)c1ccc(C)cc1)C(CN1CCOCC1)C(c1ccccc1)c1c(O)c2ccccc2oc1=O` (configuration not stated), for which the TGI in [1], in assay [2], in assay [4], in assay [5], in assay [6] and in assay [7] was over 100 µM each time. The TGI in [8], in assay [9], in assay [10], in assay [11], in assay [12] and in [14] was over 100 µM throughout. Besides, the TGI in [17], in assay [15] and in [16] was over 100 µM throughout.

`COc1ccc(C[C@@H]2Cc3cc(OC)c(OC)cc3CN2C)cc1`: the TGI in [1], in [2], in [3], in assay [4], in [5] and in assay [6] was over 100 µM each time. Moreover, the TGI in [7], in [9], in assay [10], in assay [11], in assay [13] and in [14] was over 100 µM in each case. Further, the TGI in assay [17], in assay [15] and in assay [16] was over 100 µM each time.

With `CC(=O)O[C@H]1C(=O)[C@@]2(C)[C@H]([C@H](OC(=O)c3ccccc3)[C@]3(O)C[C@H](OC(=O)[C@H](OC(=O)OCCC(O)CO)[C@@H](NC(=O)c4ccccc4)c4ccccc4)C(C)=C1C3(C)C)[C@]1(OC(C)=O)CO[C@@H]1C[C@@H]2O` (some centres not stated), the TGI in [1] is over 100 µM; in [2], 62.9 µM; in [3] it was 0.0471 µM; in assay [4], over 100 µM; in [5], 49.8 µM; in [6], 13.1 µM. The TGI in assay [8] was under 0.01 µM; in assay [9], 14.5 µM; in assay [10], 43.5 µM; in assay [11], over 53 µM; in assay [12], under 0.01 µM; in assay [14], 33.6 µM. The TGI in [17] was 1.28 µM; in [15], 19.2 µM; in [16], over 100 µM.

As to `OC12c3ccccc3C1(N1CCOCC1)CCCCC21OCCCO1` (configuration not stated), the TGI in assay [1], in assay [2], in assay [4], in assay [5], in assay [6] and in assay [7] was over 100 µM in each case. The TGI in assay [8], in assay [9], in assay [10], in [11], in assay [12] and in assay [13] was over 100 µM each time. Further, the TGI in assay [14], in [17] and in [15] was over 100 µM in each case.

With `COC(=O)/C=C1/CCC2[C@@H](C(=O)CC3[C@]2(C)CCC[C@@]3(C)C(=O)OC)C1C` (some centres not stated), the TGI was 37.7 µM in assay [1]; 17.4 µM in assay [2]; 39.8 µM in [3]; 20.2 µM in [4]; 14.2 µM in assay [5]; 27 µM in assay [6]. Moreover, the TGI is 29.1 µM in assay [7]; 46.1 µM in [8]; 20.4 µM in [9]; 39.4 µM in assay [10]; 34.9 µM in assay [11]; 28.5 µM in [12]. In addition, the TGI in assay [13] turned out to be 26.8 µM; in assay [14] it was 40.6 µM; in [15], 29.5 µM; in assay [16] it was 37.5 µM.

For `Cc1nc2c(n1CCO)C(=O)c1ccccc1C2=O`, the TGI in assay [1] was over 100 µM; in [3], over 100 µM; in assay [4], over 100 µM; in assay [5] it was 58.3 µM; in assay [6] it was over 100 µM; in assay [7] it was 52.3 µM. The TGI in assay [8] was over 100 µM; in [9] it was 76.2 µM; in [11] it was over 100 µM; in assay [12] it was 88.9 µM; in assay [13], over 100 µM; in assay [14], over 100 µM. Further, the figures for the TGI in assay [17], in assay [15] and in assay [16] were over 100 µM, 91.8 µM and over 100 µM, respectively.

Turning to `O=C(O)/C=C/n1c2ccccc2c(=O)c2ccccc21`, the TGI in assay [1], in [2], in [3], in [4], in [5] and in assay [6] was over 100 µM each time. For the same molecule, the TGI in assay [7], in assay [8], in assay [9], in assay [10], in [11] and in assay [12] was over 100 µM throughout. For the same molecule, the TGI in assay [13], in [14], in assay [15] and in assay [16] was over 100 µM throughout.
